Test results taken from patent publication US20200023003A1 (FENNEC PHARMACEUTICALS INC., priority 2018, published 2020).
Where “and” joins values, the source holds several entries; their conditions need not be identical. Equal values may be shown once. Read-outs that look alike come from different tables or passages of the source.

Tests used:
[1] = tested on: pediatric patients being treated with platinum based chemotherapeutics
Excerpt: Reference is made to International Patent Application Publication No. WO 2019/108592, which is a continuation of U.S. patent application Ser. No. 15/826,243, filed on Nov. 29, 2017, both of which are incorporated by reference herein in their entirety.

[2] = tested on: small cell lung cancer cell cultures; conditions: cited from earlier work
[3] = animals
[4] = for Cisplatin Concentration: 24° C.
Experimental: The method uses a Waters Acquity H-Class HPLC system with an Imtakt Scherzo SW-C18 mixed mode column. The HPLC method conditions are outlined in Table 7. […] This range covers greater than two orders of magnitude at dose-relevant concentrations.
Each sample was transferred to an HPLC vial and placed in an autosampler chamber held at 24° C. Samples were injected onto the HPLC system approximately every 30 minutes to obtain 4 time-points for each sample. A gradient was run and the retention time and peak area were obtained.

[5] = cited from earlier work
[6] = tested on: pediatric patients being treated with a platinum based chemotherapeutic
Excerpt: These adverse events comprise grade 3 or grade 4 neutropenia, reduced glomerular filtration rates, increased serum creatinine, infection, hypomagnesemia, hypernatremia, vomiting, or nausea.

[7] = Dynamic vapor sorption (DVS) isotherm; conditions: for DVS weight loss upon desorption: hysteresis observed
[8] = Excerpt: It is a white to off-white crystalline solid, that is soluble in water, but insoluble in alcohol. The aqueous solution is practically neutral with a pH ranging from 6.5 to 9.0. The molecular formula is Na2S2O3. It has a molecular weight of 158.11 g/mol. The structural formula is: […]
[9] = thiosulfate:cisplatin 5:1 (n = 2)
[10] = thiosulfate:cisplatin 6:1 (n = 2)
[11] = thiosulfate:cisplatin 10:1 (n = 2)

Sodium thiosulfate [STS]
ototoxicity in pediatric patients ([1]; STS after a platinum based chemotherapeutic (e.g., cisplatin)): significantly reduced ototoxicity
hearing protection ([1]; dose equivalent to 5.1 g/m^2 sodium thiosulfate for injection, preliminary clinical studies): did not show hearing protection
prevention of ototoxicity ([1]; doses equivalent to 6.4 to 12.8 g/m^2 sodium thiosulfate for injection): prevented ototoxicity
survival ([1]; treatment 6 hours after completion of each CIS infusion): did not affect survival
effect of STS on cytotoxicity of etoposide ([2]; immediate or delayed addition of STS, incubation for 72 hours): no reduction of cytotoxicity
effect of STS on anti-tumor activity of doxorubicin, carmustine (BCNU), paclitaxel, or methotrexate ([2]; similar studies): no reduction of anti-tumor activity
distribution to the cochlea [3]: distribute to the cochlea
Half-life (time to reach 333/2 μM cisplatin) [4, 9]: 3.3 h
Slope (linear regression of cisplatin conc. vs. time) [4, 9]: −0.80 Cisplatin Area/min
Cisplatin Concentration ([4]; thiosulfate:cisplatin 5:1, 4 min): 323.7 µM
Cisplatin Concentration ([4]; thiosulfate:cisplatin 5:1, 37 min): 294.2 µM and 294.0 µM
Cisplatin Concentration ([4]; thiosulfate:cisplatin 5:1, 70 min): 266.8 µM and 268.0 µM
Cisplatin Concentration ([4]; thiosulfate:cisplatin 5:1, 103 min): 243.7 µM and 245.3 µM
Half-life (time to reach 333/2 μM cisplatin) [4, 10]: 3.07 h
Slope (linear regression of cisplatin conc. vs. time) [4, 10]: −0.87 Cisplatin Area/min
Cisplatin Concentration ([4]; thiosulfate:cisplatin 6:1, 5 min): 325.4 µM and 324.5 µM
Cisplatin Concentration ([4]; thiosulfate:cisplatin 6:1, 38 min): 286.4 µM and 293.2 µM
Cisplatin Concentration ([4]; thiosulfate:cisplatin 6:1, 71 min): 259.8 µM and 266.2 µM
Cisplatin Concentration ([4]; thiosulfate:cisplatin 6:1, 104 min): 235.6 µM and 240.5 µM
Half-life (time to reach 333/2 μM cisplatin) [4, 11]: 2.27 h
Slope (linear regression of cisplatin conc. vs. time) [4, 11]: −1.13 Cisplatin Area/min
Cisplatin Concentration ([4]; thiosulfate:cisplatin 10:1, 4 min): 319.5 µM
Cisplatin Concentration ([4]; thiosulfate:cisplatin 10:1, 5 min): 320.3 µM
Cisplatin Concentration ([4]; thiosulfate:cisplatin 10:1, 37 min): 269.4 µM
Cisplatin Concentration ([4]; thiosulfate:cisplatin 10:1, 38 min): 278.5 µM
Cisplatin Concentration ([4]; thiosulfate:cisplatin 10:1, 70 min): 235.2 µM
Cisplatin Concentration ([4]; thiosulfate:cisplatin 10:1, 71 min): 239.6 µM
Cisplatin Concentration ([4]; thiosulfate:cisplatin 10:1, 103 min): 205.6 µM
Cisplatin Concentration ([4]; thiosulfate:cisplatin 10:1, 104 min): 209.3 µM
biological half-life, range ([5]; dependent on dose): 16.5-182 minutes
biological half-life ([5]; following IV administration): 0.65 hours
excreted in the urine unmodified ([5]; following IV administration): Up to 95%
serum sodium levels ([6]; doses of STS equivalent to 12.8 g/m^2 sodium thiosulfate for injection): small, transient increase
renal or other toxicities ([6]; pediatric patients treated with a platinum based chemotherapeutic): not exacerbate renal or other toxicities

O.O.O.O.O.O=S([O-])([O-])=S.[Na+].[Na+] [sodium thiosulfate pentahydrate]
DVS weight loss upon desorption [7]: 51%
DVS weight loss upon drying ([7]; drying): 27%
DVS weight gain upon sorption [7]: 81%

O=S([O-])([O-])=S.[Na+].[Na+] [anhydrous sodium thiosulfate, Sodium thiosulfate anhydrous]
DVS weight change upon equilibration to 0% relative humidity ([7]; 0% relative humidity): minimal weight change
DVS weight loss upon desorption [7]: 51%
DVS weight gain upon sorption [7]: 165%
solubility in alcohol ([8]; alcohol): insoluble
solubility in water ([8]; water): soluble
